Test results as given in paper PMC6501426 (Clinical Epigenetics, 2019).

Assays:
[1] = tested on: PBMCs (non-proliferating, healthy donors); assay: Cell viability, trypan blue exclusion; format: cell-based; conditions: Homo sapiens, PBMC, 48 h of treatment, read-out: IC50 ± SD, cell viability, PBMCs
Description: Peripheral blood mononuclear cells (PBMCs) from healthy donors were isolated as previously described. Freshly isolated PBMCs were either cultured and treated at 1.10^6 cells/mL (non-proliferating PBMCs) or stimulated with phytohaemoagglutinin (PHA) and interleukin (IL)-2 (called PHA_PBMCs) to induce blastogenesis in T lymphocytes before treatments as previously described. Briefly, freshly isolated PBMCs were seeded at a concentration of 2.10^6 cells/mL in RMPI 1640 supplemented with 1% antibiotic-antimycotic (Lonza, Verviers, Belgium) and 10% human AB serum (Corning, Fisher scientific, Merelbeke, Belgium). After overnight incubation, floating lymphoid cells were collected and seeded at 1.10^6 cells/mL in RMPI 1640 supplemented with 1% antibiotic-antimycotic, 5% FBS, 10% human AB serum, 1 μg/mL PHA (Gentaur, Kampenhout, Belgium), 50 U/mL IL-2 (Roche, Prophac, Luxembourg City, Luxembourg), 1% non-essential amino acids (Invitrogen, Luxembourg), 1% HEPES (Invitrogen, Luxembourg), 1% sodium pyruvate (Invitrogen, Luxembourg), and 0.1% β-mercaptoethanol (Invitrogen, Luxembourg). After 72 h, the cells were seeded at 1.10^6 cells/mL in the same mitogenic growth medium described just above and treated with test compounds.
(§1) Proliferation and viability of U-937, KG-1, RAJI, PC-3, MDA-MB-231, RPMI1788, PBMCs, and PHA_PBMCs were assessed by trypan blue exclusion assays at the indicated time points. Nuclear morphology changes associated with apoptosis and necrosis were evaluated by fluorescence microscopy after Hoechst and propidium iodide (PI) staining as previously described.
(§2) IC50 values of compounds against cellular viability were determined by using nonlinear regression fitting curves with GraphPad Prism 8 or CalcuSyn software The t test used for statistical analyses was performed with GraphPad Prism 8. All the tests were one-tailed, and a p value < 0.05 was considered statistically significant.

[2] = tested on: DNMT3A protein level in HCT116 cells; assay: Western blot of DNMT3A protein in HCT116; format: cell-based, human; conditions: 24 h; MC3353 effect detectable at 0.1 μM
Excerpt: Cells were lysed in Laemmli buffer; subsequently, the proteins were resolved by sodium dodecyl sulfate-polyacrylamide gel electrophoresis and transferred to a 0.45-μm nitrocellulose membrane (Bio-Rad Laboratories, Hercules, CA). The following primary antibodies were used for immunoblotting: α-E-cadherin (BD Transduction Laboratories, Franklin Lakes, NJ), α-MMP2 (Abcam), α-DNMT3a (Santa Cruz Biotechnologies, Dallas, TX), and α-GAPDH (Millipore Corp., Bedford, MA), used as a loading control. The immune complexes were detected with horseradish peroxidase-conjugated species-specific secondary antiserum (Bio-Rad Laboratories, Milan, Italy) then by enhanced chemiluminescence reaction (Bio-Rad Laboratories, Milan, Italy). Densitometric analysis of protein expression was performed by using the Fiji ImageJ image processing package.
GAPDH was used as a loading control. Blots are representative of two independent experiments

MDA-MB-231 = assay: Cell viability, trypan blue exclusion; format: cell-based, human; conditions: Homo sapiens, MDA-MB-231; 48 h of treatment; read-out: IC50 ± SD, cell viability, MDA-MB-231
Description: (§3) U-937 (acute myeloid leukemia), RAJI (Burkitt’s lymphoma), PC-3 (prostate cancer), and MDA-MB-231 (breast cancer) cell lines were obtained from the Deutsche Sammlung für Mikroorganismen and Zellkulturen (DSZM, Braunschweig, Germany) and were cultured in RPMI 1640 (Lonza, Verviers, Belgium) complemented with 10% FBS (Lonza, Verviers, Belgium) and 1% antibiotic-antimycotic (Lonza). RPMI1788 (normal B lymphocytes) and KG-1 (acute myeloid leukemia) cell lines were obtained from the American Type Culture Collection (ATCC) and were maintained in RPMI 1640 complemented with 20% FBS and IMDM complemented with 10% FBS, respectively. Cell lines were treated with compounds at the indicated concentrations in the exponential growth phase.
as §1, §2

RAJI = assay: Cell viability, trypan blue exclusion; format: cell-based, human; conditions: Homo sapiens, Raji; 48 h of treatment; read-out: IC50 ± SD, cell viability, RAJI
Description: as §3, §1, §2

KG-1 = assay: Cell viability, trypan blue exclusion; format: cell-based, human; conditions: Homo sapiens, KG-1; 48 h of treatment; read-out: IC50 ± SD, cell viability, KG-1
Description: as §3, §1, §2

PC-3 = assay: Cell viability, trypan blue exclusion; format: cell-based, human; conditions: Homo sapiens, PC-3; 48 h of treatment; read-out: IC50 ± SD, cell viability, PC-3
Description: as §3, §1, §2

[3] = tested on: RPMI1788 (normal B lymphocytes); assay: Cell viability, trypan blue exclusion; format: cell-based; conditions: Homo sapiens, RPMI-1788; 48 h of treatment; normal cells; read-out: IC50 ± SD, cell viability, RPMI1788
Description: as §3, §1
IC50 values of compounds against cellular viability were determined by using nonlinear regression fitting curves with GraphPad Prism 8 or CalcuSyn software The t test used for statistical analyses was performed with GraphPad Prism 8. […]

IC50 (MDA-MB-231): 8.5 ± 7.2 µM | IC50 (RAJI): 7.8 ± 0.7 µM | IC50 (PC-3): 5 ± 0.6 µM
Compound: Cc1cc(Nc2ccc(NC(=O)c3ccc(Nc4ccnc5ccccc45)cc3)cc2)nc(N)n1 [SGI-1027, reference compound]
IC50 [1]: 18.1 ± 6.8 µM | DNMT3A protein expression level (western blot), HCT116 [2]: moderate effect on DNMT3A expression level | IC50 (KG-1): 3.6 ± 0.6 µM | IC50 [3]: 6.7 ± 1.3 µM
